Source: PMC11044016 (Journal of the American Chemical Society, 2023)

Key:
[1] = terminal cytosine of 3TC; stated without experiment, no reference given; cited from earlier work
HBV = experiment: Antiviral; assay type: cell-based; settings: Hepatitis B virus, HePAD38, read-out: IC50 (HBV DNA released from cells)
[2] = Balb/cJ mice, s.c. 75 mg/kg

For `Nc1ccn([C@H]2CS[C@@H](CO)O2)c(=O)n1` [3TC, 2’,3’-Dideoxy-3’-Thiacytidine], the pKa [1] is given as “around 7.2”, the IC50 (HBV) is given as 170 nM and the “3TC plasma concentration after day 3” value [2] is given as “no drug detectable”.
